Experimental data from patent US4980362A, “4-substituted-2-alkoxytetrahydrofuran derivatives” (J. Uriach & CIA. S.A., priority 1990, dated 1990).

Columns and labels:
[1] = test system: platelet aggregation induced by PAF; test: Test 1: Inhibition of platelet aggregation induced by PAF; format: cell-based, rabbit (male New Zealand albino); conditions: rabbit platelet rich plasma, PAF (C18) 16 nM final, Born nephelometric technique
Method: Test 1: Inhibition of platelet aggregation induced by PAF.
The blood is obtained by cardiac puncture of male New Zealand albino rabbits (between 2 and 2.5 Kg of weight) and coagulation is prevented by adding 1 part of 3.16% sodium citrate dihydrate in 9 parts of blood. The platelet rich plasma (PRP) is prepared by blood centrifugation at 250×g for 10 min. at 4° C. and it is diluted with platelet poor plasma (PPP) by additional centrifugation at 3000×g for 10 min. The amount of platelets is adjusted to […]. The platelet aggregation induced by PAF (C18; prepared in our laboratory) (16 nM, final) is determined by the Born nephelometric technique (J. Physiol., 1962, 162, 67) using a aggregometer Chrono-log 500. The activities of the inhibitors are expressed as IC50, that is to say the concentration of the drug needed to inhibit the platelet aggregation by 50%.

[2] = test system: hypotension induced by PAF; test: Test 2: Inhibition of the hypotensive effect induced by PAF in normotense rats; format: in vivo, rat (male Sprage Dawley); conditions: anesthetized male rats, compound 3 min before PAF 0.5 mcg/Kg i.v., text calls it IC50; for ED50: Rattus norvegicus, iv, read-out: CI50 (the source's name); for CI50: i.v.
Method: Test 2 - Inhibition of the hypotensive effect induced by PAF in normotense rats.
Male Sprage Dawley rats, of 180-220 g of weight, anesthetized with sodium pentobarbital (50 mg/Kg, i.p. 1 mL/100 g) have been used. In order to measure the average arterial pressure, a polyethylene catheter is introduced into the carotid artery. The arterial pressure is recorded with the help of a transducer connected with a R611 Beckman polygraph. The tested compounds are administered through the femoral vein 3 min before the injection of PAF (0.5 mcg/Kg, i.v.).

PAF-induced mortality = test: Test 3: PAF-induced mortality in mice (p.o.); format: in vivo, mouse (Swiss); conditions: 1 hour before C18-PAF 100 mcg/kg plus propanolol 1 mg/kg i.v., inhibition of mortality, observed 2 hours after PAF; for ED50: Mus musculus, po, 2 h, read-out: ID50 (the source's name)
Method: Finally, certain compounds of the present invention show an improved oral activity with regard to other chemically related PAF-antagonists reported in the literature, such as CV-6209, (disclosed in EP No. 157609) as shown by test 3:
Test 3 - PAF-induced mortality in mice (p.o.)
The experiment is carried out according to the method of Young et al. (Prostaglandins, 1985, 30, 545-551). Groups of 10 Swiss mice weighing 22-26 g are used. 100 mcg/kg of C18 -PAF plus 1 mg/kg of propanolol are intravenously administered in a lateral tail vein 1 hour after the oral administration of test compounds (0.1 mL/10 g). Every animal is observed 2 hours after the PAF injection. Percent inhibition of mortality due to treatments in comparison with control group are recorded. Results are given as ID50 values (mg/kg) in table 3.

[3] = Oryctolagus cuniculus, Platelet

Row | Structure (SMILES) | IC50 [1, 3] | ED50 [2] | ED50 (PAF-induced mortality) | CI50 [2] | IC50 [1] | ID50 (PAF-induced mortality; 120 min)
1 | CC[n+]1ccccc1CN(C(C)=O)C(=O)OCC1COC(OCCC(C)C)C1 (racemic) [Compound 14, (±)-cis,trans-1-ethyl-2-[N-acetyl-N-[[[(2-(3-methylbutoxy)tetrahydrofuran-4-yl)methoxy]carbonyl]amino]methyl]pyridinium iodide] | 700 nM | 0.21 mg/kg |  |  |  | 
2 | CCCCCCCCCCCCCCCCOC1CC(COC(=O)N(Cc2cccc[n+]2CC)C(C)=O)CO1 (racemic) [Compound 8, (±)-cis,trans-1-ethyl-2-[N-acetyl-N-[[[(2-hexadecyloxytetrahydrofuran-4-yl)methoxy]carbonyl]amino]methyl]pyridinium iodide] | 12 nM | 0.01 mg/kg | 80 mg/kg |  |  | 
3 | CCCCCCCCCCCCCCCCCCNC(=O)OCC(COC(=O)N(Cc1cccc[n+]1CC)C(C)=O)OC (stereo not shown) [CV-6209, reference compound] |  |  | 70 mg/kg |  |  | 
4 | CCOC1CC(COC(=O)N(Cc2cccc[n+]2CC)C(C)=O)CO1 (racemic) [Compound 11, (±)-cis,trans-1-ethyl-2-[N-acetyl-N-[[[(2-ethoxytetrahydrofuran-4-yl)methoxy]carbonyl]amino]methyl]pyridinium iodide] | 2900 nM | 2.3 mg/kg |  |  |  | 
5 | CCCCCCCCCCCCCCCCCCOC1CC(COC(=O)N(Cc2cccc[n+]2C)C(C)=O)CO1 (racemic) [Compound 3, (±)-cis,trans-1-methyl-2-[N-acetyl-N-[[[(2-octadecyloxytetrahydrofuran-4-yl)methoxy]carbonyl]amino]methyl]pyridinium iodide] | 45 nM | 0.08 mg/kg | > 100 mg/kg |  |  | 
6 | CCCCCCCCCCCCCCCCCCOC1CC(COC(=O)N(Cc2cccc[n+]2CC)C(C)=O)CO1 (racemic) [Compound 4, (±)-cis,trans-1-ethyl-2-[N-acetyl-N-[[[(2-octadecyloxytetrahydrofuran-4-yl)methoxy]carbonyl]amino]methyl]pyridinium iodide] | 16 nM |  | 14 mg/kg | 0.053 mg/kg |  | 
7 | CC[n+]1ccccc1CN(C(C)=O)C(=O)OCC1COC(OCCCc2ccccc2)C1 (racemic) [Compound 17, (±)-cis,trans-1-ethyl-2-[N-acetyl-N-[[[(2-(3-phenylpropoxy)tetrahydrofuran-4-yl)methoxy]carbonyl]amino]methyl]pyridinium iodide] | 190 nM | 0.12 mg/kg |  |  |  | 
8 | CCCCCCCCCCCCCCCCCCOC1CC(COC(=O)N(Cc2cccc[n+]2CC)C(C)=O)CO1 (racemic) [Compound 5, (±)-cis,trans-1-ethyl-2-[N-acetyl-N-[[[(2-octadecyloxytetrahydrofuran-4-yl)methoxy[carbonyl[amino]methyl]pyridinium chloride] |  |  |  | 0.024 mg/kg | 12 nM | 19 mg/kg
